PubChem BioAssay (NCI)
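All cell lines were grown in 96-well plates and treated with compound for 48 hours. GI50 = concentration required for 50% inhibition of growth. TGI is the concentration that stops growth completely.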

Tests used:
Assay in all cases: NCI anticancer screen, dose series, 48 h
CCRF-CEM leukemia = test system: CCRF-CEM leukemia
HL-60(TB) leukemia = test system: HL-60(TB) leukemia
HCT-15 colon = test system: HCT-15 colon
OVCAR-8 ovarian = test system: OVCAR-8 ovarian
SK-MEL-5 melanoma = test system: SK-MEL-5 melanoma
SNB-75 CNS = test system: SNB-75 CNS
RXF 393 renal = test system: RXF 393 renal
SK-OV-3 ovarian = test system: SK-OV-3 ovarian
SN12C renal = test system: SN12C renal
HCT-116 colon = test system: HCT-116 colon

Row | SMILES | GI50 (CCRF-CEM leukemia) [µM] | TGI (CCRF-CEM leukemia) [µM] | GI50 (HL-60(TB) leukemia) [µM] | TGI (HL-60(TB) leukemia) [µM] | GI50 (HCT-15 colon) [µM] | TGI (HCT-15 colon) [µM] | GI50 (OVCAR-8 ovarian) [µM] | TGI (OVCAR-8 ovarian) [µM] | GI50 (SK-MEL-5 melanoma) [µM] | TGI (SK-MEL-5 melanoma) [µM] | GI50 (SNB-75 CNS) [µM] | TGI (SNB-75 CNS) [µM] | GI50 (RXF 393 renal) [µM] | TGI (RXF 393 renal) [µM] | GI50 (SK-OV-3 ovarian) [µM] | TGI (SK-OV-3 ovarian) [µM] | GI50 (SN12C renal) [µM] | TGI (SN12C renal) [µM] | TGI (HCT-116 colon) [µM]
1 | Fc1cc(C2=Nn3c(nnc3-c3cc(F)c(Cl)cc3Cl)SC2)c(Cl)cc1Cl | 22 | > 100 | 80.4 | > 100 | 20.2 | 70.2 | 26 | 97.3 | 13.4 | 30.3 | 26.2 | > 100 | 23.2 | 62.5 | 29.2 | > 100 | 18.4 | 55.7 | 
2 | CC12CCC3C(CCC4(O)C=CCCC34C=O)C1(O)CC(O)C2c1ccc(=O)oc1 (stereo not given) |  | 10.1 |  |  |  | 0.178 |  | 0.193 |  | 0.0887 |  | 0.246 |  | 0.0693 |  | 0.248 |  | 0.199 | 0.22
3 | Cc1ccc(NCCO)cc1 |  | > 100 |  | > 100 |  | > 100 |  | > 100 |  | > 100 |  | > 100 |  |  |  | > 100 |  | > 100 | > 100
4 | COc1ccc(-c2nnc3c4ccccc4sn23)cc1 |  | 33.7 |  | 45.4 |  | > 100 |  | > 100 |  | > 100 |  | 87.3 |  | 82.5 |  |  |  | > 100 | > 100
5 | Cc1cc(C)c(S(=O)(=O)N(CCCCCCN)OCCCON(CCCCCCN)S(=O)(=O)c2c(C)cc(C)cc2C)c(C)c1 |  | > 100 |  | > 100 |  | 3.6 |  | 3.34 |  |  |  | 3.17 |  | 3.18 |  | 3.37 |  | 3.89 | 3.08
6 | COc1ccc2c(c1)C(=O)/C(=C/c1ccccc1)C2 |  | > 100 |  |  |  | > 100 |  | > 100 |  | > 100 |  | > 100 |  | > 100 |  | > 100 |  | > 100 | 
7 | CCCCN(CCCC)C1(c2cc3ccccc3s2)CCCCC1 |  | 28.7 |  | 34.3 |  | 30.8 |  | 34.4 |  | 40.7 |  | 30.5 |  | 30.8 |  | 36.3 |  | 36.6 | 23.7
8 | CC1(C)CCCC2(C)[C@@H]1CC[C@]13C[C@](C)(CC[C@@H]21)[C@@H]3CO (stereo not given in full) |  | > 100 |  | > 100 |  | > 100 |  |  |  | > 100 |  | > 100 |  | > 100 |  | > 100 |  | > 100 | > 100
9 | CCNc1nc2c(=O)n(C)c(=O)n(C)c2s1 |  | > 100 |  | > 100 |  | > 100 |  | > 100 |  |  |  | > 100 |  | > 100 |  | > 100 |  | > 100 | > 100
10 | C=C1CC2(C)CCC(OC(=O)C3(C)OC3C)C(C)(OC(C)=O)C2CC1=C(C)C (stereo not given) |  | > 100 |  | 76.1 |  | > 100 |  | > 100 |  | > 100 |  | > 100 |  | > 100 |  | > 100 |  | > 100 | > 100
11 | O=C(O)CSc1nc2ccccc2[nH]1 |  |  |  |  |  | > 100 |  | > 100 |  |  |  | > 100 |  | > 100 |  |  |  | > 100 | > 100
12 | ClCc1nnc2n1-c1ccc(Cl)cc1SC2 |  | 8.42 |  | 3.51 |  | 23.8 |  | > 39.5 |  | 9.49 |  | 10.3 |  | 9.79 |  | 12.6 |  | 29.6 | 12.7
13 | NCCSC1(O)C(=O)c2ccccc2-c2ccccc21 (stereo not given) |  | 6.82 |  | 2.55 |  | 2.54 |  | 1.16 |  | 1.34 |  | 2.4 |  | 3.01 |  | 2.95 |  | 2.76 | 1.04
14 | CCOC(=O)c1csc(NC(=O)CCN2CCOCC2)n1 |  | > 100 |  | 94.4 |  | > 100 |  | 87.2 |  | > 100 |  |  |  | > 100 |  | > 100 |  |  | 
15 | COc1cc(CN(C)N2C(=O)c3cccc4cc([N+](=O)[O-])cc(c34)C2=O)cc(OC)c1OC |  | > 100 |  | > 100 |  | > 100 |  | > 100 |  | > 100 |  | 60.1 |  | 90.3 |  | > 100 |  | > 100 | 
16 | O=C(NC/C=C/CO)c1ccccc1 |  | > 100 |  | > 100 |  | > 100 |  | > 100 |  | > 100 |  | > 100 |  | > 100 |  | > 100 |  | > 100 | > 100
17 | O=c1n(Cc2ccccc2)c2ccccc2n1CC1CS1 (stereo not given) |  | > 100 |  | > 100 |  | > 100 |  | > 100 |  |  |  | > 100 |  |  |  | > 100 |  | > 100 | > 100
